For one compound, IC50 results are on record in BindingDB's records for doi:10.7270/Q2736T2X (n/a, 1995).

Assay [1] concerns the target Muscarinic acetylcholine receptor M1/M2/M3/M4/M5. As to the kind of experiment: Binding affinity towards muscarinic receptor using [3H]quinuclidinyl benzilate (QNB) to label antagonist sites in membrane preparations from rat neocortex.
For assay [2] the target is unchanged. Put plainly: Binding affinity towards muscarinic receptor using [3H]cis-methyldioxolane (CMD) to label agonist sites in membrane preparations from rat neocortex.

The structures appear in SMILES notation.

As usually defined, the IC50 is the point on the concentration scale where inhibition reaches its midpoint. Consider `O=[N+]([O-])c1cccc(C#CCO[N-][C+]2CN3CCC2C3)c1` (configuration not stated) [1-Aza-bicyclo[2.2.1]heptan-3-one O-[3-(3-nitro-phenyl)-prop-2-ynyl]-oxime], for which the half-maximal inhibitory concentration (IC50) in assay [1] was 6.4 µM; in assay [2], 0.028 µM.
